Reference: ChEMBL document CHEMBL5137022, “Antitumor Activity of Rutaecarpine in Human Colorectal Cancer Cells by Suppression of Wnt/β-Catenin Signaling” (J Nat Prod, 2022)
Active and inactive are the calls of the source. No cut-off for these calls is given here.

Assays:
[1] = Inhibition of Wnt/beta-catenin transactivation signalling in HEK293 cells transfected with renilla luciferase and TOPFlash reporter gene incubated for 24 hrs by dual-luciferase assay; assay type: cell-based; conditions: Homo sapiens, HEK293, 24 h
CCD-18Co = assay: Antiproliferative activity against human CCD-18Co cells assessed as reduction in cell viability measured after 72 hrs by SRB assay; assay type: functional, cell-based
LS174T [2] = assay: Induction of cell cycle arrest in human LS174T cells assessed as accumulation of cells at S phase at 20 uM measured after 24 hrs by RNase A/propidium iodide staining based flow cytometric analysis (reference value: 14.5 %); assay type: functional
LS174T [3] = assay: Induction of cell cycle arrest in human LS174T cells assessed as downregulation of cyclin E expression measured after 24 hrs by Western blot analysis; assay type: functional, cell-based; conditions: dose 5-20 µM, DDE = dose-dependent effect
LS174T [4] = assay: Induction of cell cycle arrest in human LS174T cells assessed as downregulation of cyclin D1 expression measured after 24 hrs by Western blot analysis; assay type: functional, cell-based; conditions: dose 5-20 µM, DDE = dose-dependent effect
LS174T [5] = assay: Induction of cell cycle arrest in human LS174T cells assessed as accumulation of cells at sub-G1 phase at 20 uM measured at 24 hrs by RNase A/propidium iodide staining based flow cytometric analysis (reference value: 0.7 %); assay type: functional
LS174T [6] = assay: Induction of cell cycle arrest in human LS174T cells assessed as accumulation of cells at G0/G1 phase at 20 uM measured at 48 hrs by RNase A/propidium iodide staining based flow cytometric analysis (reference value: 74.8 %); assay type: functional
LS174T [7] = assay: Induction of apoptosis in human LS174T cells assessed as downregulation of survivin expression measured after 48 hrs by Western blot analysis; assay type: functional, cell-based; conditions: dose 20-40 µM, DDE = dose-dependent effect
LS174T [8] = assay: Downregulation of MMP-7 expression in human LS174T cells at up to 8 uM incubated for 24 hrs by Western blot analysis; assay type: functional, cell-based
Mus musculus [9] = assay: Downregulation of cyclin-D1 expression in tumor of BALB/c mouse xenografted with human LS174T cells at 10 to 30 mg/kg, ip administered 3 times per week for 21 days by Western blot analysis; assay type: functional, organism-based; conditions: dose 10-30 mg/kg, time 21.0 day
Mus musculus [10] = assay: Downregulation of snail protein expression in tumor of BALB/c mouse xenografted with human LS174T cells at 10 to 30 mg/kg, ip administered 3 times per week for 21 days by Western blot analysis; assay type: functional, organism-based; conditions: dose 10-30 mg/kg, time 21.0 day
LS174T [11] = assay: Induction of apoptosis in human LS174T cells assessed as increase in early apoptotic cells at 20 to 40 uM measured after 48 hrs by AnnexinV-FITC/PI staining based flowcytometry analysis; assay type: functional, cell-based; conditions: dose 20-40 µM

For O=c1c2ccccc2nc2n1CCc1c-2[nH]c2ccccc12 [RUTAECARPINE], the IC50 [1] was 4.3 µM, the IC50 (CCD-18Co) was greater than 50 µM and the Activity (LS174T [2]) was 4.1%. For the same molecule, the Activity (LS174T [3]) was “Dde”, the Activity (LS174T [4]) was “Dde” and the Activity (LS174T [5]) was 2.7%. The Activity (LS174T [6]) was 76.9%, the Activity (LS174T [7]) was “Dde” and the Activity (LS174T [8]) was “Active”. For the same molecule, the Activity (Mus musculus [9]) was “Active”, the Activity (Mus musculus [10]) was “Active” and the Activity (LS174T [11]) was “Active”.
